The values below come from PubChem BioAssay (NCI).

Test systems include KM12 colon; K-562 leukemia; A498 renal; HOP-92 NSCLC; UACC-62 melanoma; 786-0 renal; SK-OV-3 ovarian; U251 CNS; SF-268 CNS; SK-MEL-28 melanoma.
Assay in all cases: DTP human tumour cell line panel, 48 h

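Five concentrations, 48 hours, 96-well plates. Abbreviation: GI50, concentration required for 50% inhibition of growth. Definition used: TGI = concentration required for complete inhibition of growth.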

For `O=C(NO)c1cnc(N2CCN(S(=O)(=O)c3ccc4ccccc4c3)CC2)nc1`, the GI50 (as a rule, the concentration at which growth is held to half of that of the control) with KM12 colon was 75.9 nM; in the experiment on K-562 leukemia it was 36.3 nM; in the experiment with A498 renal, 28.3 nM; in the experiment with HOP-92 NSCLC it was 20.2 nM; in the experiment on UACC-62 melanoma, 37.4 nM; with 786-0 renal it was 193 nM. Also, the GI50 with SK-OV-3 ovarian was 147 nM; in the experiment with U251 CNS, 65.4 nM; in the experiment with SF-268 CNS, 169 nM; with SK-MEL-28 melanoma, 62 nM. Further, the TGI (commonly the concentration at which net growth stops) in the experiment on KM12 colon was 0.412 µM; in the experiment with K-562 leukemia, above 40.9 µM; in the experiment with A498 renal, 0.22 µM; with HOP-92 NSCLC, 0.0857 µM; with UACC-62 melanoma, 0.22 µM; with 786-0 renal it was 2.83 µM. Besides, the TGI was 2.33 µM in the experiment with SK-OV-3 ovarian, 0.298 µM in the experiment on U251 CNS, 1.3 µM in the experiment with SF-268 CNS and 1.15 µM in the experiment with SK-MEL-28 melanoma.

In the case of `CC12C(=O)N(CCN)C(=O)C1C1c3ccccc3C2c2ccccc21` (stereo not given), the TGI in the experiment with KM12 colon was above 100 µM; in the experiment with K-562 leukemia it was above 100 µM; in the experiment on A498 renal, above 100 µM; in the experiment with HOP-92 NSCLC, 98.4 µM; in the experiment on UACC-62 melanoma, above 100 µM; with 786-0 renal, above 100 µM. The TGI in the experiment with SK-OV-3 ovarian, in the experiment with U251 CNS, in the experiment with SF-268 CNS and in the experiment with SK-MEL-28 melanoma was above 100 µM each time.

Consider `CC(C)CNc1nc(N=[N+]=[N-])nc(NCC(C)C)n1`, for which the GI50 in the experiment with KM12 colon was above 10000 nM; in the experiment on K-562 leukemia, above 10000 nM; in the experiment with A498 renal it was above 10000 nM; in the experiment on HOP-92 NSCLC it was 7890 nM; in the experiment with UACC-62 melanoma, above 10000 nM; with 786-0 renal, above 10000 nM. Moreover, the GI50 in the experiment with SK-OV-3 ovarian, with U251 CNS, with SF-268 CNS and with SK-MEL-28 melanoma was above 10000 nM each time. Also, the TGI in the experiment with KM12 colon, in the experiment on K-562 leukemia, in the experiment with A498 renal, with HOP-92 NSCLC, in the experiment on UACC-62 melanoma and with 786-0 renal was above 10 µM in each case. The TGI in the experiment on SK-OV-3 ovarian, in the experiment on U251 CNS, in the experiment on SF-268 CNS and with SK-MEL-28 melanoma was above 10 µM each time.

On to `Brc1ccc(Br)nn1`, for which the GI50 in the experiment on KM12 colon was 12000 nM; in the experiment with K-562 leukemia it was 2170 nM; in the experiment with A498 renal it was 3420 nM; in the experiment on HOP-92 NSCLC it was 1800 nM; in the experiment with UACC-62 melanoma it was 1880 nM; in the experiment with 786-0 renal it was 2110 nM. For the same compound, the GI50 in the experiment with SK-OV-3 ovarian was 8640 nM; in the experiment with U251 CNS, 1470 nM; in the experiment with SF-268 CNS, 1900 nM; in the experiment with SK-MEL-28 melanoma, 1420 nM. The TGI in the experiment with KM12 colon amounted to 26.1 µM; in the experiment with K-562 leukemia it was 10.3 µM; in the experiment on A498 renal, 17.5 µM; in the experiment with HOP-92 NSCLC it was 3.6 µM; in the experiment on UACC-62 melanoma, 6.24 µM; in the experiment on 786-0 renal, 4.75 µM. Also, the TGI in the experiment with SK-OV-3 ovarian worked out at 20.8 µM; with U251 CNS it was 3.18 µM; in the experiment on SF-268 CNS it was 5.04 µM; in the experiment on SK-MEL-28 melanoma, 2.76 µM.

Regarding `CC[C@H](C)[C@H](NC(=O)C12CC(NC(C)=O)(C1)C2)C(=O)N(C)[C@H](C[C@@H](OC(C)=O)c1nc(C(=O)N[C@@H](Cc2ccccc2)C[C@H](C)C(=O)OC)cs1)C(C)C`, the GI50 is 296 nM with KM12 colon; 101 nM with K-562 leukemia; 234 nM with A498 renal; above 11800 nM in the experiment on HOP-92 NSCLC; 73.5 nM in the experiment with UACC-62 melanoma; 395 nM in the experiment on 786-0 renal. For the same compound, the GI50 with SK-OV-3 ovarian is 394 nM; in the experiment with U251 CNS, 433 nM; with SF-268 CNS it was 809 nM; with SK-MEL-28 melanoma, 1810 nM. In addition, the TGI with KM12 colon was above 16.7 µM; in the experiment on K-562 leukemia, above 16.7 µM; in the experiment on A498 renal, 1.58 µM; in the experiment on HOP-92 NSCLC, above 16.7 µM; in the experiment on UACC-62 melanoma, above 16.7 µM; in the experiment on 786-0 renal, above 16.7 µM. In addition, the TGI in the experiment with SK-OV-3 ovarian is above 10.9 µM; in the experiment with U251 CNS it was above 16.7 µM; in the experiment on SF-268 CNS, above 16.7 µM; with SK-MEL-28 melanoma it was above 16.7 µM.

Consider `Nc1cccc2nsnc12`, for which the TGI in the experiment on KM12 colon is above 100 µM; in the experiment with K-562 leukemia it was above 85.4 µM; in the experiment with A498 renal, above 100 µM; in the experiment with HOP-92 NSCLC, above 100 µM; with UACC-62 melanoma, above 100 µM; with 786-0 renal it was above 100 µM. In addition, the TGI in the experiment with SK-OV-3 ovarian, with U251 CNS, in the experiment with SF-268 CNS and in the experiment with SK-MEL-28 melanoma was above 100 µM in each case.

Consider `N#CC12Cc3ccc4c(c3-c3cccc(c31)CCN2C(=O)c1ccccc1)OCO4` (stereo not given), for which the TGI in the experiment with KM12 colon, in the experiment on K-562 leukemia, in the experiment with A498 renal, in the experiment on HOP-92 NSCLC, in the experiment with UACC-62 melanoma and in the experiment with 786-0 renal was above 100 µM throughout. In addition, the TGI in the experiment on SK-OV-3 ovarian, in the experiment on U251 CNS, with SF-268 CNS and in the experiment with SK-MEL-28 melanoma was above 100 µM in each case.

Turning to `CO[C@@]12CC(=O)/C(=C(O)\C=C\c3ccccc3)C(=O)[C@]1(OC)Cc1ccccc1O2`, the TGI in the experiment with KM12 colon was 46.6 µM; in the experiment with K-562 leukemia, above 100 µM; with A498 renal, 90.7 µM; in the experiment on HOP-92 NSCLC, above 100 µM; in the experiment with UACC-62 melanoma it was 52.3 µM; with 786-0 renal, 70.2 µM. For the same compound, the TGI with SK-OV-3 ovarian was above 100 µM; in the experiment with U251 CNS it was 59.1 µM; in the experiment on SF-268 CNS, 91.1 µM; in the experiment on SK-MEL-28 melanoma, 59.8 µM.

With `CC12OC3CC(O1)C1(C=O)C4CCC5(C)C(c6ccc(=O)oc6)CCC5(O)C4CCC1(C3)O2` (stereo not given), the TGI with KM12 colon was 1.4 µM; with K-562 leukemia it was above 100 µM; in the experiment on A498 renal, 1.35 µM; in the experiment on HOP-92 NSCLC, 1.71 µM; with UACC-62 melanoma it was 0.781 µM; in the experiment on 786-0 renal, 0.246 µM. Moreover, the TGI is 0.513 µM in the experiment with SK-OV-3 ovarian, 1.24 µM with U251 CNS, 0.229 µM in the experiment with SF-268 CNS and 1.49 µM with SK-MEL-28 melanoma.

Take `O=C1C2Nc3ccccc3SC2C(=O)N1c1cccc([N+](=O)[O-])c1` (stereo not given): the total growth inhibition concentration (TGI) in the experiment with KM12 colon, in the experiment with K-562 leukemia, in the experiment on A498 renal, in the experiment with HOP-92 NSCLC, in the experiment on UACC-62 melanoma and with 786-0 renal was above 100 µM in each case. Further, the TGI in the experiment on SK-OV-3 ovarian, with U251 CNS, in the experiment with SF-268 CNS and in the experiment with SK-MEL-28 melanoma was above 100 µM each time.

Take `COC(=O)C1=Cc2c(OC)cc(OC)c(OC)c2[C@H](c2cc(OC)c(OC)cc2OC)C1C(=O)OC` (stereo not given in full): the TGI with KM12 colon is above 100 µM; with K-562 leukemia it was 46.9 µM; in the experiment on A498 renal, above 100 µM; with HOP-92 NSCLC it was above 100 µM; with UACC-62 melanoma it was above 100 µM; in the experiment on 786-0 renal it was above 100 µM. Moreover, the TGI in the experiment on SK-OV-3 ovarian, in the experiment on U251 CNS, with SF-268 CNS and in the experiment on SK-MEL-28 melanoma was above 100 µM throughout.

In the case of `OC1C2C=CCC1CCC2` (stereo not given), the TGI with KM12 colon, in the experiment on K-562 leukemia, in the experiment on A498 renal, in the experiment on HOP-92 NSCLC, in the experiment with UACC-62 melanoma and in the experiment on 786-0 renal was above 100 µM throughout. The total growth inhibition concentration (TGI) in the experiment with SK-OV-3 ovarian, with U251 CNS, in the experiment on SF-268 CNS and in the experiment with SK-MEL-28 melanoma was above 100 µM throughout.

As to `C=C=[CH][Sn]([c]1ccccc1)([c]1ccccc1)[c]1ccccc1`, the GI50 was 1490 nM with KM12 colon; 722 nM in the experiment with K-562 leukemia; 1240 nM in the experiment on A498 renal; 593 nM in the experiment on HOP-92 NSCLC; 1650 nM with UACC-62 melanoma; 1510 nM in the experiment on 786-0 renal. The GI50 in the experiment on SK-OV-3 ovarian is 2150 nM; in the experiment on U251 CNS it was 1660 nM; with SF-268 CNS, 1690 nM; with SK-MEL-28 melanoma, 1710 nM. Further, the TGI in the experiment on KM12 colon amounted to 2.95 µM; with K-562 leukemia, 3.3 µM; in the experiment on A498 renal, 2.56 µM; in the experiment on HOP-92 NSCLC, 2.03 µM; with UACC-62 melanoma, 3.28 µM; in the experiment with 786-0 renal, 2.92 µM. The TGI was determined as 4.73 µM with SK-OV-3 ovarian, 3.16 µM in the experiment on U251 CNS, 3.66 µM in the experiment on SF-268 CNS and 3.34 µM in the experiment with SK-MEL-28 melanoma.

As to `CC(C)c1cccc(C(C)C)c1NC1=CC(=O)C(=O)c2ccccc21`, the TGI with KM12 colon, in the experiment with K-562 leukemia, in the experiment on A498 renal, in the experiment with HOP-92 NSCLC, in the experiment on UACC-62 melanoma and in the experiment on 786-0 renal was above 100 µM in each case. The TGI with SK-OV-3 ovarian, with U251 CNS, in the experiment on SF-268 CNS and with SK-MEL-28 melanoma was above 100 µM each time.

For `O=[N+]([O-])c1cc(/C=N/NS(=O)(=O)c2ccc(F)cc2)c(O)c([N+](=O)[O-])c1`, the TGI in the experiment with KM12 colon was 50 µM; in the experiment with K-562 leukemia, above 100 µM; in the experiment with A498 renal it was 78.1 µM; in the experiment with HOP-92 NSCLC, above 100 µM; in the experiment on UACC-62 melanoma it was above 100 µM; in the experiment on 786-0 renal, above 100 µM. Besides, the TGI in the experiment on SK-OV-3 ovarian was 78.3 µM; in the experiment on U251 CNS, 44.7 µM; with SF-268 CNS, above 100 µM; in the experiment on SK-MEL-28 melanoma it was above 100 µM.

Regarding `OC(c1ccccc1)c1c(-c2ccccc2)oc(-c2ccccc2)c1C(O)c1ccccc1` (stereo not given), the TGI in the experiment with KM12 colon amounted to 18.9 µM; in the experiment on K-562 leukemia, 13.9 µM; in the experiment on A498 renal it was 30.4 µM; in the experiment with HOP-92 NSCLC, 26.5 µM; in the experiment with UACC-62 melanoma, 25.6 µM; in the experiment on 786-0 renal it was 21 µM. For the same compound, the TGI in the experiment with SK-OV-3 ovarian stood at 30.1 µM; with U251 CNS, 27.6 µM; with SF-268 CNS, 25.5 µM; with SK-MEL-28 melanoma, 27.9 µM.
